The values below come from patent US12303594B2, “Antimicrobial and anti-inflammatory compositions” (The Texas A&M University System, priority 2015, dated 2025).

For one data set, the system named is SA 25-05. Briefly: Endpoint time-kill synergy study. The settings on record: ibuprofen with sub-MIC antimicrobial vs antimicrobial alone, 6 hours.
Data set [1] in a line: Particle size distribution by laser light diffraction. Format: physicochemical. As for the experimental part:
The particle size distribution (PSD) D10, D50, and D90 values for each sample were defined as particle diameters at the 10th, 50th, and 90th percentile and the span value was calculated according to Equation 2: […]
PSD analysis by laser light diffraction: PSDs were determined using a Sympatec Helos equipped with a Cuvette module (System-Partikel-Technik GmbH, Clausthal-Zellerfeld, Germany). Data were analyzed using the Sympatec WINDOX software. For each measurement, per a previously optimized method, about 2 mg of powder was dispersed in 0.5 mL of 0.1% (w/v) sodium dodecyl sulfate in water and the sample was sonicated for 5 min. […] After the reference measurement, 50 μL aliquots of the sonicated suspension were added to the cell to achieve optical concentrations of between 10 to 20% and the total of six measurements were performed on each sample. Formulations immediately following air-jet milling (25IBU10.1, 25IBU10.2) and after 6 months (25IBU10.1**, 25IBU10.2**) stored at RT (IBU10.1), or at −80° C. (IBU10.2) were analyzed.
PSDs were determined using a Sympatec Helos equipped with a Cuvette module (System-Partikel-Technik GmbH, Clausthal-Zellerfeld, Germany). Data were analyzed using the Sympatec WINDOX software. For each measurement per a previously optimized method, about 2 mg of powder was dispersed in 0.5 mL of 0.1% (w/v) SLS in water and the sample was sonicated for 5 minutes. […] After the reference measurement, 50 μL aliquots of the sonicated suspension were added to the cell to achieve optical concentrations of between 10 to 20% and the total of six measurements were performed on each sample. Analyzed samples included: unprocessed IBU and IND as well as the milled samples from different sections of the jet mill including the tube after grinding chamber (bfC), the cyclone (C), the collection vessel adapter (D), the collection bag adapter (E), the collection vessel (G) and the collection bag (H) for each run. The span value was calculated according to Equation 2.
To estimate the overall D10, D50, and D90 values for the combined recovered fractions associated with each run, stacked bar charts were graphed and analyzed to determine the yield normalized cumulative PSDs. Each stacked bar corresponded to a particle size bin and its height corresponded to the volume density distributions' weighted averages by the yield for each segment of the jet mill. The D10, D50, and D90 values for the normalized cumulative PSDs were the particle sizes corresponding to the 10, 50, and 90% area of the stacked bar chart respectively.
Tween 20 and sodium lauryl sulfate (SLS) were purchased from Fisher Scientific (Fisher Scientific, Pittsburgh, PA, USA), and dH2O was used for preparing solutions. […] A reference measurement was done in 0.1% (v/v) Span 85 in light mineral oil. After a reference measurement, aliquots of […] of sonicated suspension were added to achieve optical concentrations from 10 to 20% for a total of six measurements.
Furthermore, D10, D50, and D90 values for each sample were defined as particle diameters at the 10th, 50th, and 90th percentile of the PSD. Span was calculated according to Equation 2. Normalized cumulative PSDs were composed of yield-normalized distributions, where they were depicted as stacked bar charts. D10, D50, and D90 values for normalized cumulative PSDs were calculated by approximating particle sizes associated with 10%, 50%, and 90% area of the stacked bar chart.

Data set [2] deals with Burkholderia multivorans, BM. Briefly: In vitro bacterial growth study (OD600). The settings on record: 10 μg/mL or 1 μg/mL ibuprofen solution added 1:1 (v:v).
Procedure: Various gram-negative bacterial strains (Pseudomonas aeruginosa, PA01: Burkholderia multivorans, BM; and an Escherichia coli strain. EC J53+pmg101) were cultured in Mueller Hinton (MH) broth to a density of 5*10^5 colony forming units (CFU)/ml as verified by serial dilution and growth of colonies on tryptic soy agar (TSA) plates. […] Endpoint CFU counting was also performed on PA01 and a Staphylococcus aureus vancomycin-intermediate (VISA) strain (Mu50).
[3] abbreviates: collection bag fraction or stock, Table 8.
[4] abbreviates: fraction used for testing (IBU collection bag, IND cyclone) or unprocessed powder.

Procedure for SA 25-05: Afterwards, the inoculums were plated to determine their CFU/ml. Synergy from the combination was determined by a ≥2×log10 decrease in CFU/ml when compared to antimicrobial treatment alone.

On to `CC(C)Cc1ccc(C(C)C(=O)O)cc1` (stereo not shown) [ibuprofen, 2(4-isobutylphenyl)propanoic acid], for which the “killing efficacy of ceftazidime and gentamicin (CFU/ml)” value with SA 25-05 is “significantly increased the killing efficacy of both ceftazidime and gentamicin”. Besides, in data set [1] (setting [3]), the D50 is 48.0 μm, the D90 is listed as 106.7 μm and the Span stood at 1.8. Further, in data set [1] (setting [4]), the Span is recorded as 1.84 and the “median size (d50)” value is 48 μm. For the same compound, the “bacterial growth (OD600)” value in data set [2] is on record as “slowed and/or delayed the growth”.
